From US20220267380A1, “Glycopeptides Increasing Lipid Synthesis” (TFCHEM, priority 2019, published 2022)

Test system: normal human dermal fibroblasts (NHDF)
Test: Gene expression in NHDF, full transcriptome analysis with Affymetrix U219 microarray
Assay type: cell-based
Settings: NHDF
Procedure: In the present study, the transcriptional effects (modulation of gene expression) of compounds 1, 2, 3 and 4 were evaluated on normal human dermal fibroblasts (NHDF) under basal conditions.
More specifically, the comparative analysis of the different transcriptomic profiles was performed using an Affymetrix GeneAtlas platform and the human “full transcriptome” U219 chip, which includes 36,000 transcripts and variants.
Fibroblasts were seeded in 24-well plates and cultured in culture medium for 24 hours. The medium was then replaced by assay medium and cells were incubated for further 24 hours. The medium was replaced by assay medium containing or not (control) the test compounds at different concentrations and the cells were preincubated for 24 hours. All experimental conditions were performed in triplicate. At the end of incubation, the culture supernatants were removed and the cells were washed in a phosphate buffered saline (PBS) solution and immediately frozen at −80° C.
Before RNA extraction, the replicates were pooled. Total RNA was extracted from each sample using TriPure Isolation Reagent® according to the supplier's instructions. The amount and quality of total RNA were evaluated for all samples using capillary electrophoresis (Bioanalyzer 2100, Agilent technologies). From each RNA, a labeled and amplified anti-sens RNA (aRNA) was obtained using GeneChip 3′IVT PLUS Kit (Affymetrix). For each labeled and amplified aRNA sample the profiles were evaluated before and after fragmentation using capillary electrophoresis (Bioanalyzer 2100, Agilent technologies). Hybridization of fragmented aRNA onto Affymetrix® U219 chip (36,000 transcripts and variants) was performed in the GeneAtlas™ fluidics Affymetrix® hybridization station for 20 hours at 45° C. U219 chip was analyzed using the GeneAtlas™ Imaging station (Affymetrix®—resolution 2 μm) to generate fluorescence intensity data.
Expression Console and Quality controls: data were normalized with the Expression Console (Affymetrix®) software using RMA algorithm. Then a quality control of the labeling and the hybridization was performed. Hybridization and labeling steps successfully passed the quality controls for these experiments.
Data reduction, Excel file description: once normalized with Expression Console, data were transferred into a Microsoft Excel® file in order to go further into data reduction.
Calculation and tools were added in order to rank and sort data, and finally to support data interpretation. Detection thresholds in terms of fold change were defined and applied on normalized data.
Results are considered and presented or commented per gene (and not probe). A probe set is a collection of probes designed to interrogate a given sequence of a gene. For data interpretation, the most important relative expression value obtained with one probe is considered to be representative of the corresponding gene. The file contains the following data: • Relative expression (RE) for each sample, • Fold change calculation, • Gene information.

[1] = relative expression adjusted to detection limit (<20), 10 mg/ml, 24 h

## C[C@H](NC(=O)[C@H](C)NC(=O)[C@@H](N)CCCCNCC(F)(F)[C@]1(O)O[C@H](CO)[C@H](O)[C@H](O)[C@H]1O)C(=O)O [Compound 1]
  effect of treatment of NHDF on lipid synthesis (transcriptional): up regulation of lipid and cholesterol synthesis
10 mg/ml, 24 h, vs control
  Fold change, ABCA1: 2.11
  Fold change, ABHD4: 2.05
  Fold change, ABHD5: 2.63
  Fold change, ACAT2: 2.12
  Fold change, AKR1C1: 2.13
  Fold change, AKR1C2: 2.60
  Fold change, CH25H: 0.36
  Fold change, CYP51A1///LRRD1: 2.20
  Fold change, DHCR7: 3.68
  Fold change, HMGCR: 2.02
  Fold change, HSD17B7: 2.44
  Fold change, HSD17B14: 2.00
  Fold change, IDI1: 2.01
  Fold change, LPIN1: 2.46
  Fold change, LRP8: 2.95
  Fold change, MSMO1: 2.03
  Fold change, MVD: 2.45
  Fold change, NEU1: 2.74
  Fold change, PCYT2: 2.41
  Fold change, PLD1: 2.15
  Fold change, PTPLA: 2.31
  Fold change, SOAT1: 2.01
  Fold change, SREBF1: 3.24
10 mg/ml, 24 h, vs control, probe set 11715460_a_at
  Fold change, DHCR24: 2.05
10 mg/ml, 24 h, vs control, probe set 11716114_x_at
  Fold change, POR: 2.20
10 mg/ml, 24 h, vs control, probe set 11716337_s_at
  Fold change, INSIG1: 2.46
10 mg/ml, 24 h, vs control, probe set 11716338_a_at
  Fold change, INSIG1: 3.42
10 mg/ml, 24 h, vs control, probe set 11716339_a_at
  Fold change, INSIG1: 3.38
10 mg/ml, 24 h, vs control, probe set 11716987_a_at
  Fold change, HMGCS1: 3.15
10 mg/ml, 24 h, vs control, probe set 11717295_s_at
  Fold change, APOD: 0.30
10 mg/ml, 24 h, vs control, probe set 11717620_a_at
  Fold change, LSS: 2.08
10 mg/ml, 24 h, vs control, probe set 11717859_a_at
  Fold change, EBP: 2.68
10 mg/ml, 24 h, vs control, probe set 11718366_s_at
  Fold change, FDPS: 2.02
10 mg/ml, 24 h, vs control, probe set 11719098_a_at
  Fold change, MVK: 2.08
10 mg/ml, 24 h, vs control, probe set 11719908_a_at
  Fold change, GBA///GBAP1: 2.93
10 mg/ml, 24 h, vs control, probe set 11720028_x_at
  Fold change, LDLR: 2.53
10 mg/ml, 24 h, vs control, probe set 11720029_a_at
  Fold change, LDLR: 2.11
10 mg/ml, 24 h, vs control, probe set 11722208_a_at
  Fold change, PTGS1: 2.77
10 mg/ml, 24 h, vs control, probe set 11722209_a_at
  Fold change, PTGS1: 2.62
10 mg/ml, 24 h, vs control, probe set 11722210_a_at
  Fold change, PTGS1: 3.14
10 mg/ml, 24 h, vs control, probe set 11724199_x_at
  Fold change, LSS: 2.21
10 mg/ml, 24 h, vs control, probe set 11724792_a_at
  Fold change, PGS1: 2.01
10 mg/ml, 24 h, vs control, probe set 11730180_s_at
  Fold change, KDSR: 2.16
10 mg/ml, 24 h, vs control, probe set 11730181_s_at
  Fold change, KDSR: 2.29
10 mg/ml, 24 h, vs control, probe set 11731324_a_at
  Fold change, LSS: 2.53
10 mg/ml, 24 h, vs control, probe set 11736100_a_at
  Fold change, GBA: 2.74
10 mg/ml, 24 h, vs control, probe set 11736285_a_at
  Fold change, CHKA: 2.27
10 mg/ml, 24 h, vs control, probe set 11736286_a_at
  Fold change, CHKA: 3.00
10 mg/ml, 24 h, vs control, probe set 11737039_a_at
  Fold change, PHLDB2: 2.96
10 mg/ml, 24 h, vs control, probe set 11737041_a_at
  Fold change, PHLDB2: 2.45
10 mg/ml, 24 h, vs control, probe set 11737042_s_at
  Fold change, PHLDB2: 2.97
10 mg/ml, 24 h, vs control, probe set 11737043_x_at
  Fold change, PHLDB2: 2.47
10 mg/ml, 24 h, vs control, probe set 11743916_a_at
  Fold change, NPC1: 6.53
10 mg/ml, 24 h, vs control, probe set 11744899_a_at
  Fold change, FADS2: 2.64
10 mg/ml, 24 h, vs control, probe set 11744902_a_at
  Fold change, FADS2: 2.09
10 mg/ml, 24 h, vs control, probe set 11745459_a_at
  Fold change, FADS1///MIR1908: 4.20
10 mg/ml, 24 h, vs control, probe set 11746281_a_at
  Fold change, LPCAT3: 2.31
10 mg/ml, 24 h, vs control, probe set 11746723_a_at
  Fold change, NPC1: 4.53
10 mg/ml, 24 h, vs control, probe set 11746974_a_at
  Fold change, LDLR: 2.99
10 mg/ml, 24 h, vs control, probe set 11747747_a_at
  Fold change, MVK: 2.02
10 mg/ml, 24 h, vs control, probe set 11748045_x_at
  Fold change, LDLR: 2.84
10 mg/ml, 24 h, vs control, probe set 11748292_a_at
  Fold change, GBA///GBAP1: 2.57
10 mg/ml, 24 h, vs control, probe set 11748368_x_at
  Fold change, POR: 2.03
10 mg/ml, 24 h, vs control, probe set 11748428_a_at
  Fold change, PGS1: 2.41
10 mg/ml, 24 h, vs control, probe set 11749042_a_at
  Fold change, DHCR24: 2.15
10 mg/ml, 24 h, vs control, probe set 11749332_x_at
  Fold change, EBP: 2.66
10 mg/ml, 24 h, vs control, probe set 11749730_a_at
  Fold change, PTGS1: 3.89
10 mg/ml, 24 h, vs control, probe set 11750975_x_at
  Fold change, GBA: 2.68
10 mg/ml, 24 h, vs control, probe set 11751085_a_at
  Fold change, GBA: 3.02
10 mg/ml, 24 h, vs control, probe set 11751086_x_at
  Fold change, GBA: 2.37
10 mg/ml, 24 h, vs control, probe set 11751098_a_at
  Fold change, GBA///GBAP1: 3.03
10 mg/ml, 24 h, vs control, probe set 11751099_x_at
  Fold change, GBA///GBAP1: 2.75
10 mg/ml, 24 h, vs control, probe set 11751337_a_at
  Fold change, DHCR24: 2.27
10 mg/ml, 24 h, vs control, probe set 11751338_x_at
  Fold change, DHCR24: 2.26
10 mg/ml, 24 h, vs control, probe set 11752670_a_at
  Fold change, FADS1///MIR1908: 4.05
10 mg/ml, 24 h, vs control, probe set 11753439_a_at
  Fold change, GBA///GBAP1: 2.64
10 mg/ml, 24 h, vs control, probe set 11754819_x_at
  Fold change, GBA///GBAP1: 2.59
10 mg/ml, 24 h, vs control, probe set 11754918_s_at
  Fold change, HMGCS1: 2.32
10 mg/ml, 24 h, vs control, probe set 11754939_x_at
  Fold change, FADS2: 2.11
10 mg/ml, 24 h, vs control, probe set 11755123_x_at
  Fold change, LPCAT3: 2.37
10 mg/ml, 24 h, vs control, probe set 11755251_x_at
  Fold change, FADS1///MIR1908: 4.13
10 mg/ml, 24 h, vs control, probe set 11756065_x_at
  Fold change, APOD: 0.24
10 mg/ml, 24 h, vs control, probe set 11757008_a_at
  Fold change, LPCAT3: 2.86
10 mg/ml, 24 h, vs control, probe set 11757009_x_at
  Fold change, LPCAT3: 2.10
10 mg/ml, 24 h, vs control, probe set 11758249_s_at
  Fold change, FDPS: 2.10
[1]
  REadj2, ABCA1: 979.20
  REadj2, ABHD4: 65.43
  REadj2, ABHD5: 212.72
  REadj2, ACAT2: 1280.94
  REadj2, AKR1C1: 3725.47
  REadj2, AKR1C2: 209.16
  REadj2, CH25H: 60.89
  REadj2, CYP51A1///LRRD1: 1291.92
  REadj2, DHCR7: 695.09
  REadj2, HMGCR: 395.78
  REadj2, HSD17B7: 91.10
  REadj2, HSD17B14: 46.74
  REadj2, IDI1: 1244.81
  REadj2, LPIN1: 240.89
  REadj2, LRP8: 93.15
  REadj2, MSMO1: 1789.72
  REadj2, MVD: 262.34
  REadj2, NEU1: 555.40
